From patent publication US12310971B2, “Coffee bean compositions comprising paraxanthine and methods for their production” (RAREBIRD, INC., priority 2021, dated 2025)

What was measured:
[1] = in humans; cited from earlier work
[2] = Solubility of paraxanthine in infusion solvents as a function of pH; type: physicochemical; details: dependence on pH
Source text: Thus, performing the infusing step at a pH of 7 or higher can be useful to increase the paraxanthine content of the finished paraxanthine coffee. In various embodiments, the pH of the infusion mixture is greater than pH 7. In some embodiments, the pH of the infusion mixture is greater than pH 8. In some embodiments, the pH of the infusion mixture is greater than 8.5. In some embodiments, the pH of the infusion mixture is greater than 9.0. In some embodiments, the pH of the infusion mixture is greater than 9.5.

[3] = Paraxanthine concentration in filtered aqueous stock infusion solution; type: physicochemical; details: 18 grams of paraxanthine mixed in 1 liter of water at 85° C., filtered to remove undissolved paraxanthine
Procedure: In the first, infusing, step, the three batches of green coffee beans were individually infused with paraxanthine dissolved in water, the infusion solvent, to produce green solvated paraxanthine coffee beans. A stock solution of infusion solvent comprising paraxanthine was generated by mixing 18 grams of paraxanthine in 1 liter of water at 85° C.; the solution was then filtered to remove any residual, undissolved paraxanthine. The paraxanthine concentration in the stock solution was approximately 74 mM. Infusions were performed in 250-mL glass jars using 60 grams of green coffee beans and 120 grams of the stock infusion solution. The mixtures were incubated at 85° C. for 1 hour with periodic mixing. Subsequently, the green solvated paraxanthine coffee beans were separated using a colander, rinsed, and residual solvent removed from the surface of the beans. The mass of the infused beans was measured and compared to the mass of the original green coffee beans to determine the infusion solvent content. The moisture contents for batches 1, 2, and 3 were 45.1%, 46.9%, and 44.8%, respectively.

| Structure (SMILES) | half-life [1] [h] | solubility of paraxanthine in the infusion solvents [2] | paraxanthine concentration in the stock solution [3] |
| --- | --- | --- | --- |
| Cn1c(=O)c2c(ncn2C)n(C)c1=O [caffeine] | 4.1 ± 0.8 |  |  |
| Cn1c(=O)[nH]c2ncn(C)c2c1=O [paraxanthine] |  | increases with increasing pH | approximately 74 mM |
